Converted amounts (≈) assume the structure as drawn.
What was measured:
[1] = test system: Streptococcus pyogenes; experiment: Antibacterial activity against inducible macrolide-lincosamide-streptogramin B resistant Streptococcus pyogenes Finland 11 by broth microdilution method; type: functional
[2] = test system: Staphylococcus aureus; experiment: Antibacterial activity against inducible macrolide-lincosamide-streptogramin B resistant Staphylococcus aureus 90256 by broth microdilution method; type: functional
[3] = test system: Rattus norvegicus; experiment: Liver blood flow in Han Wistar rat at 10 mg/kg, iv and 50 mg/kg, po; type: ADME, organism-based; settings: in vivo
[4] = test system: Streptococcus pyogenes; experiment: Antibacterial activity against efflux-mediated macrolide-resistance Streptococcus pyogenes 2 Finland by broth microdilution method; type: functional
[5] = test system: Staphylococcus aureus; experiment: Antibacterial activity against constitutive macrolide, lincosamide, streptogramin-resistant Staphylococcus aureus PK2 by broth microdilution method; type: functional
[6] = test system: Haemophilus influenzae; experiment: Antibacterial activity against Haemophilus influenzae ATCC 49247 by broth microdilution method; type: functional
[7] = test system: Staphylococcus aureus; experiment: Antibacterial activity against efflux-mediated macrolide-resistant Staphylococcus aureus PK1 by broth microdilution method; type: functional
[8] = test system: Streptococcus pneumoniae; experiment: Antibacterial activity against efflux-mediated macrolide-resistant Streptococcus pneumoniae Ci137 by broth microdilution method; type: functional
[9] = test system: Streptococcus pyogenes; experiment: Antibacterial activity against macrolide, lincosamide, streptogramin-resistant Streptococcus pyogenes 166 GR-Micro by broth microdilution method; type: functional
[10] = test system: Streptococcus pneumoniae; experiment: Antibacterial activity against inducible macrolide-resistant, constitutive lincosamide, streptogramin-resistant Streptococcus pneumoniae 134 GR M by broth microdilution method; type: functional
[11] = test system: Moraxella catarrhalis; experiment: Antibacterial activity against Moraxella catarrhalis ATCC 23246 by broth microdilution method; type: functional
[12] = test system: Streptococcus pneumoniae; experiment: Antibacterial activity against erythromycin-sensitive Streptococcus pneumoniae SP030 by broth microdilution method; type: functional
[13] = test system: Streptococcus pneumoniae; experiment: Antibacterial activity against constitutive macrolide, lincosamide, streptogramin-resistant Streptococcus pneumoniae 58 spain by broth microdilution method; type: functional
[14] = test system: Staphylococcus aureus; experiment: Antibacterial activity against erythromycin-sensitive Staphylococcus aureus ATCC 13709 by broth microdilution method; type: functional
[15] = test system: Streptococcus pyogenes; experiment: Antibacterial activity against erythromycin-sensitive Streptococcus pyogenes 3565 by broth microdilution method; type: functional

SMILES | MIC [1] | MIC [2] | LBF [3] | MIC [4] | MIC [5] | MIC [6] | MIC [7] | MIC [8] | MIC [9] | MIC [10] | MIC [11] | MIC [12] | MIC [13] | MIC [14] | MIC [15]
CC[C@H]1OC(=O)[C@H](C)[C@@H](O[C@H]2C[C@@](C)(OC)[C@@H](OC(=O)CCOCCNc3cc4c(=O)c(C(=O)O)cn(C5CC5)c4cc3Cl)[C@H](C)O2)[C@H](C)[C@@H](O[C@@H]2O[C@H](C)C[C@H](N(C)C)[C@H]2O)[C@](C)(O)C[C@@H](C)CN(C)[C@H](C)[C@@H](O)[C@]1(C)O | ≤ 0.125 µg/mL | 0.25 µg/mL (≈ 0.222 µM) | 26% | ≤ 0.125 µg/mL | 32 µg/mL (≈ 28.4 µM) | 0.5 µg/mL (≈ 0.444 µM) | 0.25 µg/mL (≈ 0.222 µM) | ≤ 0.125 µg/mL | ≤ 0.125 µg/mL | ≤ 0.125 µg/mL | 0.5 µg/mL (≈ 0.444 µM) | ≤ 0.125 µg/mL | ≤ 0.125 µg/mL | ≤ 0.125 µg/mL | ≤ 0.125 µg/mL
CC[C@H]1OC(=O)[C@H](C)[C@@H](O[C@H]2C[C@@](C)(OC)[C@@H](OC(=O)CCOCCOc3cc4c(=O)c(C(=O)O)cn(C5CC5)c4cc3Cl)[C@H](C)O2)[C@H](C)[C@@H](O[C@@H]2O[C@H](C)C[C@H](N(C)C)[C@H]2O)[C@](C)(O)C[C@@H](C)CN(C)[C@H](C)[C@@H](O)[C@]1(C)O | ≤ 0.125 µg/mL | 0.5 µg/mL (≈ 0.444 µM) |  | ≤ 0.125 µg/mL | > 64 µg/mL | 1 µg/mL (≈ 0.887 µM) | 0.5 µg/mL (≈ 0.444 µM) | ≤ 0.125 µg/mL | 0.25 µg/mL (≈ 0.222 µM) | 0.25 µg/mL (≈ 0.222 µM) | 1 µg/mL (≈ 0.887 µM) | ≤ 0.125 µg/mL | 0.5 µg/mL (≈ 0.444 µM) | 0.25 µg/mL (≈ 0.222 µM) | ≤ 0.125 µg/mL
CC[C@H]1OC(=O)[C@H](C)[C@@H](O[C@H]2C[C@@](C)(OC)[C@@H](OC(=O)CCOCCOCCNc3cc4c(=O)c(C(=O)O)cn(CC)c4cc3Cl)[C@H](C)O2)[C@H](C)[C@@H](O[C@@H]2O[C@H](C)C[C@H](N(C)C)[C@H]2O)[C@](C)(O)C[C@@H](C)CN(C)[C@H](C)[C@@H](O)[C@]1(C)O | ≤ 0.125 µg/mL | ≤ 0.125 µg/mL |  | ≤ 0.125 µg/mL | 16 µg/mL (≈ 13.8 µM) | 1 µg/mL (≈ 0.864 µM) | ≤ 0.125 µg/mL | ≤ 0.125 µg/mL | 0.25 µg/mL (≈ 0.216 µM) | ≤ 0.125 µg/mL | 0.5 µg/mL (≈ 0.432 µM) | ≤ 0.125 µg/mL | ≤ 0.125 µg/mL | ≤ 0.125 µg/mL | ≤ 0.125 µg/mL
CCCn1cc(C(=O)O)c(=O)c2cc(NCCOCCOCCC(=O)O[C@H]3[C@H](C)O[C@@H](O[C@H]4[C@H](C)[C@@H](O[C@@H]5O[C@H](C)C[C@H](N(C)C)[C@H]5O)[C@](C)(O)C[C@@H](C)CN(C)[C@H](C)[C@@H](O)[C@](C)(O)[C@@H](CC)OC(=O)[C@@H]4C)C[C@@]3(C)OC)c(Cl)cc21 | ≤ 0.125 µg/mL | 32 µg/mL (≈ 27.3 µM) |  | ≤ 0.125 µg/mL | > 64 µg/mL | 4 µg/mL (≈ 3.41 µM) | 0.25 µg/mL (≈ 0.213 µM) | ≤ 0.125 µg/mL | 1 µg/mL (≈ 0.853 µM) | 1 µg/mL (≈ 0.853 µM) | 0.5 µg/mL (≈ 0.427 µM) | ≤ 0.125 µg/mL | ≤ 0.125 µg/mL | 0.25 µg/mL (≈ 0.213 µM) | ≤ 0.125 µg/mL
CC[C@H]1OC(=O)[C@H](C)[C@@H](O[C@H]2C[C@@](C)(OC)[C@@H](OC(=O)CCOCCOCCNc3cc4c(=O)c(C(=O)O)cn(C(C)C)c4cc3Cl)[C@H](C)O2)[C@H](C)[C@@H](O[C@@H]2O[C@H](C)C[C@H](N(C)C)[C@H]2O)[C@](C)(O)C[C@@H](C)CN(C)[C@H](C)[C@@H](O)[C@]1(C)O | ≤ 0.125 µg/mL | 0.25 µg/mL (≈ 0.213 µM) |  | ≤ 0.125 µg/mL | 64 µg/mL (≈ 54.6 µM) | 1 µg/mL (≈ 0.853 µM) | ≤ 0.125 µg/mL | ≤ 0.125 µg/mL | 1 µg/mL (≈ 0.853 µM) | 0.25 µg/mL (≈ 0.213 µM) | 1 µg/mL (≈ 0.853 µM) | ≤ 0.125 µg/mL | ≤ 0.125 µg/mL | ≤ 0.125 µg/mL | ≤ 0.125 µg/mL
CC[C@H]1OC(=O)[C@H](C)[C@@H](O[C@H]2C[C@@](C)(OC)[C@@H](OC(=O)CCOCCOCCNc3cc4c(=O)c(C(=O)O)cn(C5CC5)c4cc3Cl)[C@H](C)O2)[C@H](C)[C@@H](O[C@@H]2O[C@H](C)C[C@H](N(C)C)[C@H]2O)[C@](C)(O)C[C@@H](C)CN(C)[C@H](C)[C@@H](O)[C@]1(C)O | ≤ 0.125 µg/mL | 0.25 µg/mL (≈ 0.214 µM) | 13% | ≤ 0.125 µg/mL | 16 µg/mL (≈ 13.7 µM) | 0.5 µg/mL (≈ 0.427 µM) | 0.25 µg/mL (≈ 0.214 µM) | ≤ 0.125 µg/mL | ≤ 0.125 µg/mL | ≤ 0.125 µg/mL | ≤ 0.125 µg/mL | ≤ 0.125 µg/mL | ≤ 0.125 µg/mL | 0.25 µg/mL (≈ 0.214 µM) | ≤ 0.125 µg/mL
CC[C@H]1OC(=O)[C@H](C)[C@@H](O[C@H]2C[C@@](C)(OC)[C@@H](OC(=O)CCOCCNc3ccc4c(c3)c(=O)c(C(=O)O)cn4C3CC3)[C@H](C)O2)[C@H](C)[C@@H](O[C@@H]2O[C@H](C)C[C@H](N(C)C)[C@H]2O)[C@](C)(O)C[C@@H](C)CN(C)[C@H](C)[C@@H](O)[C@]1(C)O | ≤ 0.125 µg/mL | 0.5 µg/mL (≈ 0.458 µM) |  | ≤ 0.125 µg/mL | 32 µg/mL (≈ 29.3 µM) | 1 µg/mL (≈ 0.916 µM) | 1 µg/mL (≈ 0.916 µM) | ≤ 0.125 µg/mL | ≤ 0.125 µg/mL | 0.25 µg/mL (≈ 0.229 µM) | 0.5 µg/mL (≈ 0.458 µM) | ≤ 0.125 µg/mL | ≤ 0.125 µg/mL | 0.5 µg/mL (≈ 0.458 µM) | ≤ 0.125 µg/mL
CC[C@H]1OC(=O)[C@H](C)[C@@H](O[C@H]2C[C@@](C)(OC)[C@@H](OC(=O)CCOCCOc3ccc4c(c3)c(=O)c(C(=O)O)cn4C3CC3)[C@H](C)O2)[C@H](C)[C@@H](O[C@@H]2O[C@H](C)C[C@H](N(C)C)[C@H]2O)[C@](C)(O)C[C@@H](C)CN(C)[C@H](C)[C@@H](O)[C@]1(C)O | ≤ 0.125 µg/mL | 1 µg/mL (≈ 0.915 µM) |  | ≤ 0.125 µg/mL | 32 µg/mL (≈ 29.3 µM) | 0.5 µg/mL (≈ 0.458 µM) | 0.25 µg/mL (≈ 0.229 µM) | ≤ 0.125 µg/mL | 0.25 µg/mL (≈ 0.229 µM) | ≤ 0.125 µg/mL | 0.5 µg/mL (≈ 0.458 µM) | ≤ 0.125 µg/mL | ≤ 0.125 µg/mL | ≤ 0.125 µg/mL | ≤ 0.125 µg/mL
CC[C@H]1OC(=O)[C@H](C)[C@@H](O[C@H]2C[C@@](C)(OC)[C@@H](OC(=O)CCOCCOCCNc3ccc4c(c3)c(=O)c(C(=O)O)cn4CC)[C@H](C)O2)[C@H](C)[C@@H](O[C@@H]2O[C@H](C)C[C@H](N(C)C)[C@H]2O)[C@](C)(O)C[C@@H](C)CN(C)[C@H](C)[C@@H](O)[C@]1(C)O | ≤ 0.125 µg/mL | 0.25 µg/mL (≈ 0.223 µM) |  | ≤ 0.125 µg/mL | 64 µg/mL (≈ 57 µM) | 2 µg/mL (≈ 1.78 µM) | ≤ 0.125 µg/mL | ≤ 0.125 µg/mL | ≤ 0.125 µg/mL | 1 µg/mL (≈ 0.89 µM) | 2 µg/mL (≈ 1.78 µM) | ≤ 0.125 µg/mL | ≤ 0.125 µg/mL | 0.25 µg/mL (≈ 0.223 µM) | ≤ 0.125 µg/mL
CC[C@H]1OC(=O)[C@H](C)[C@@H](O[C@H]2C[C@@](C)(OC)[C@@H](OC(=O)CCOCCOCCNc3ccc4c(c3)c(=O)c(C(=O)O)cn4C3CC3)[C@H](C)O2)[C@H](C)[C@@H](O[C@@H]2O[C@H](C)C[C@H](N(C)C)[C@H]2O)[C@](C)(O)C[C@@H](C)CN(C)[C@H](C)[C@@H](O)[C@]1(C)O | ≤ 0.125 µg/mL | 0.5 µg/mL (≈ 0.44 µM) |  | ≤ 0.125 µg/mL | 16 µg/mL (≈ 14.1 µM) | 0.5 µg/mL (≈ 0.44 µM) | ≤ 0.125 µg/mL | ≤ 0.125 µg/mL | ≤ 0.125 µg/mL | ≤ 0.125 µg/mL | 0.25 µg/mL (≈ 0.22 µM) | ≤ 0.125 µg/mL | ≤ 0.125 µg/mL | ≤ 0.125 µg/mL | ≤ 0.125 µg/mL
CC[C@H]1OC(=O)[C@H](C)[C@@H](O[C@H]2C[C@@](C)(OC)[C@@H](O)[C@H](C)O2)[C@H](C)[C@@H](O[C@@H]2O[C@H](C)C[C@H](N(C)C)[C@H]2O)[C@](C)(O)C[C@@H](C)CN(C)[C@H](C)[C@@H](O)[C@]1(C)O [AZITHROMYCIN] | 16 µg/mL (≈ 21.4 µM) | > 64 µg/mL |  | 8 µg/mL (≈ 10.7 µM) | > 64 µg/mL | 1 µg/mL (≈ 1.34 µM) | 32 µg/mL (≈ 42.7 µM) | 8 µg/mL (≈ 10.7 µM) | > 64 µg/mL | > 64 µg/mL | ≤ 0.125 µg/mL | ≤ 0.125 µg/mL | > 64 µg/mL | 0.5 µg/mL (≈ 0.668 µM) | ≤ 0.125 µg/mL
CC[C@H]1OC(=O)[C@H](C)C(=O)[C@H](C)[C@@H](O[C@@H]2O[C@H](C)C[C@H](N(C)C)[C@H]2O)[C@](C)(OC)C[C@@H](C)C(=O)[C@H](C)[C@H]2N(CCCCn3cnc(-c4cccnc4)c3)C(=O)O[C@]12C [TELITHROMYCIN] | 0.06 µg/mL (≈ 0.0739 µM) | ≤ 0.125 µg/mL |  | 0.5 µg/mL (≈ 0.616 µM) | > 64 µg/mL | 2 µg/mL (≈ 2.46 µM) | ≤ 0.125 µg/mL | 0.25 µg/mL (≈ 0.308 µM) | 16 µg/mL (≈ 19.7 µM) | 0.25 µg/mL (≈ 0.308 µM) | ≤ 0.125 µg/mL | ≤ 0.125 µg/mL | 0.25 µg/mL (≈ 0.308 µM) | 0.125 µg/mL (≈ 0.154 µM) | ≤ 0.125 µg/mL

Reference: ChEMBL document CHEMBL1806455, “Synthesis, activity and pharmacokinetics of novel antibacterial 15-membered ring macrolones” (Eur J Med Chem, 2011)
